{
  "source": "patent US12589104B2",
  "about": "“Thiosaccharides for use in treating coronavirus infection” (priority 2020, dated 2026)",
  "key": {"[1]": {"target": "T1, SARS-CoV-2 RBD^original binding to ACE2 (Severe acute respiratory syndrome coronavirus 2, UniProt P0DTC2)", "T1 construct": "ACRO Biosystems); purchased ACRO Biosystems", "details": "for binding of RBD^original to ACE2 at one and two hours post exposure and wash: 5 mM drug for 1 hour, washed, ACE2 added after 60 or 120 minutes; for inhibition of binding of RBD^original to ACE2: RBD exposed to drug for 60 minutes, 0 to 20 mM"}, "[2]": {"system": "SARS-CoV-2, isolate USA-WA1/2020", "assay_type": "cell-based"}, "[3]": {"system": "SARS CoV2 (isolate USA-WA1/2020)", "set-up": "species or system Syrian hamsters (Mesocricetus auratus)", "details": "hamster, in vivo"}, "[4]": {"details": "cited from earlier work"}, "SARS-2-S pseudovirus": {"system": "SARS-2-S pseudovirus", "assay_type": "cell-based, SARS-CoV-2"}, "[5]": {"target": "T2, RBD of SARS-2-S binding to ACE2 (Severe acute respiratory syndrome coronavirus 2, UniProt P0DTC2)", "T2 construct": "Recombinantly expressed RBD of SARS-2-S was first immobilized to a surface", "set-up": "species or system SARS-CoV-2"}, "[6]": {"system": "VSV pseudotype bearing the SARS-2-S protein (VSV-S)", "assay_type": "cell-based, SARS-CoV-2"}, "[7]": {"assay_type": "physicochemical", "details": "11 mg/mL in vehicle, Aerogen Solo vibrating mesh nebulizer"}},
  "note": "Structures can show the parent of a compound that is named as a salt.",
  "data": [
    {"smiles": "NCCS", "note": "[Cysteamine]", "values": [
      {"measurement": "binding of RBD^original to ACE2 at one and two hours post exposure and wash", "setting": "[1]", "value": "binding inhibition was retained for two hours after drug removal"},
      {"measurement": "inhibition of binding of RBD^original to ACE2", "setting": "[1]", "value": "strong inhibitory effects"},
      {"measurement": "cytopathic effects in virus-infected cells, virus exposed to drug prior to infection", "setting": "[2]", "value": "significantly inhibited"},
      {"measurement": "interleukin-6 levels in lung lavage", "setting": "[3]", "value": "lower than control"},
      {"measurement": "lung weights", "setting": "[3]", "value": "lower than in control groups"},
      {"measurement": "lymphocytes in BAL fluid", "setting": "[3]", "value": "decreases"},
      {"measurement": "neutrophils in BAL fluid", "setting": "[3]", "value": "decreases"},
      {"measurement": "total leukocyte counts in the bronchoalveolar lavage (BAL) fluid", "setting": "[3]", "value": "lower than control"},
      {"measurement": "pKa (thiol group)", "setting": "[4]", "value": 8.2}
    ]},
    {"smiles": "O=S(=O)(O)CCS", "note": "[MESNA, 2-Mercaptoethane sulfonate, sodium salt]", "values": [
      {"measurement": "binding of RBD^original to ACE2 at one and two hours post exposure and wash", "setting": "[1]", "value": "binding inhibition was retained for two hours after drug removal"},
      {"measurement": "inhibition of binding of RBD^original to ACE2", "setting": "[1]", "value": "strong inhibitory effects"},
      {"measurement": "antiviral efficacy in vitro compared to NAC", "setting": "SARS-2-S pseudovirus", "value": "superior antiviral efficacy in vitro"}
    ]},
    {"smiles": "OC1C(O)[C@H](O)C(CS)O[C@@H]1O[C@H]1OC(CS)[C@@H](O)C(O)C1O", "note": "(stereo partly drawn) [MUC, 6,6′-dithiotrehalose]", "values": [
      {"measurement": "inhibition of binding of ACE2 to SARS-2-S", "setting": "[5]", "value": "inhibited binding of ACE2 to SARS-2-S"},
      {"measurement": "persistence of binding inhibition after drug is washed out", "setting": "[5]", "value": "binding inhibition persists following drug contact"},
      {"measurement": "potency in inhibiting ACE2 binding compared to NAC", "setting": "[5]", "value": "stronger potency"},
      {"measurement": "effectiveness for inhibiting viral entry compared to NAC", "setting": "[6]", "value": "more effective than NAC"},
      {"measurement": "inhibition of VSV-S cellular entry", "setting": "[6]", "value": "inhibited VSV-S cellular entry"},
      {"measurement": "inhibition of VSV-S entry", "setting": "[6]", "value": "All three concentrations of MUC resulted in potent inhibition of VSV-S entry"}
    ]},
    {"smiles": "OC1C(O)[C@H](O)C(CS)O[C@@H]1O[C@@H]1OC(CS)[C@@H](O)C(O)C1O", "note": "(stereo partly drawn) [MUC-031, 6,6′-dithiotrehalose]", "values": [
      {"measurement": "average mass median aerodynamic diameter (MMAD) of the exposure atmosphere", "setting": "[7]", "value": 2.60, "unit": "μm"}
    ]},
    {"smiles": "CC(=O)N[C@@H](CS)C(=O)O", "note": "[NAC, N-acetyl-L-cysteine]", "values": [
      {"measurement": "inhibition of binding of ACE2 to SARS-2-S", "setting": "[5]", "value": "inhibited binding of ACE2 to SARS-2-S"},
      {"measurement": "inhibition of VSV-S cellular entry", "setting": "[6]", "value": "inhibited VSV-S cellular entry"},
      {"measurement": "inhibition of VSV-S entry", "setting": "[6]", "value": "only 5 and 25 mM of NAC resulted in significant cell entry inhibition"}
    ]},
    {"smiles": "NCCCNCCS", "note": "[WR-1065]", "values": [
      {"measurement": "binding of RBD^original to ACE2 at one and two hours post exposure and wash", "setting": "[1]", "value": "binding inhibition was retained for two hours after drug removal"},
      {"measurement": "inhibition of binding of RBD^original to ACE2", "setting": "[1]", "value": "strong inhibitory effects"}
    ]},
    {"smiles": "NCCCNCCSP(=O)(O)O", "note": "[amifostine, Amifostine]", "values": [
      {"measurement": "pseudovirus cell entry after pretreatment of SARS-2-S pseudovirus with drug", "setting": "SARS-2-S pseudovirus", "value": "did not inhibit viral cell entry"}
    ]},
    {"smiles": "N[C@@H](CSCC(=O)O)C(=O)O", "note": "[carbocysteine, Carbocysteine]", "values": [
      {"measurement": "pseudovirus cell entry after pretreatment of SARS-2-S pseudovirus with drug", "setting": "SARS-2-S pseudovirus", "value": "did not inhibit viral cell entry"},
      {"measurement": "cytopathic effects in virus-infected cells, virus exposed to drug prior to infection", "setting": "[2]", "value": "significantly inhibited"}
    ]}
  ]
}
